The record followed here is patent publication US9517221B2, “(2R)-2-propyloctanoic acid for functional brain disease” (ONO PHARMACEUTICAL CO., LTD., priority 2006, dated 2016).

For experiment [1], the system named is olfactory bulbectomized rats. In words: Anxiolytic behavior on elevated plus maze of olfactory bulbectomized rats. It counts as in vivo, rat. The settings on record: for Time (seconds) stayed on closed arm (mean ± S. E.) / Time (seconds) stayed on open arm (mean ± S. E.): 5 minutes test 1 hour after 8 days administration. On the procedure:
SPF rats (Crlj: WI) were used in the test. The animal for olfactory bulbectomy was anesthetized with pentobarbital sodium (Nembutal R Injection, Dainippon Pharmaceutical, dose: 1 mL/kg (intraperitoneal administration)), and the head was fixed using a brain stereotaxic apparatus (ASI Instruments, Inc., NARISHIGE). After incising the head skin, holes are opened at right and left olfactory bulb regions of the skull using a dental drill (manufactured by […]), and the right and left olfactory bulbs were removed by sucking them using an aspirator connected to a tip-removed oral sonde, and the head skin was stitched thereafter. In this connection, in the case of the animals for sham-operation, anesthesia, brain fixation and head skin incision were carried out in the same manner as in the animals for olfactory bulbectomy, holes are opened at right and left olfactory bulb regions of the skull and the head skin was stitched without carrying out suction removal of the olfactory bulbs. The rats after olfactory bulbectomy were put into a series of five stainless steel cages, each of which was partitioned into two parts with an acrylic board for individual rearing space, and individually reared under a dark condition. The rats were subjected to the following tests of (2) and (3). • (a) Sham-operation group (12 animals); • (b) Vehicle control group (12 animals); • (c) 3 mg/kg administration group (12 animals) of (2R)-2-propyloctanoic acid; • (d) 10 mg/kg administration group (12 animals) of (2R)-2-propyloctanoic acid; • (e) 10 mg/kg administration group (12 animals) of Milnacipran hydrochloride. [Drug Administration] As shown below, drug solution or vehicle was administered once a day for 8 days, a total of 8 times, at a respective liquid dose of 5 mL/kg. • (a) Sham-operation group: vehicle (0.1% by volume Tween 80) aqueous solution; • (b) Vehicle control group: vehicle (0.1% by volume Tween 80) aqueous solution; • (c) 3 mg/kg administration group of (2R)-2-propyloctanoic acid: a drug solution in which (2R)-2-propyloctanoic acid was prepared to be 0.6 mg/mL with the vehicle; • (d) 10 mg/kg administration group of (2R)-2-propyloctanoic acid: a drug solution in which (2R)-2-propyloctanoic acid was prepared to be 2.0 mg/mL with the vehicle; • (e) 10 mg/kg administration group of milnacipran hydrochloride: a drug solution in which Milnacipran hydrochloride was prepared to be 2.3 mg/mL with the vehicle (Milnacipran itself is included in 2.0 mg/mL). (2) Examination of the Activity for Hyperemotional Reactivity <Evaluation Method> Evaluation of the anxiolytic behavior on an elevated plus maze was carried out once per animal for 5 minutes from 1 hour to 1 hour and 10 minutes after 8 days of the administration, in accordance with the following method. Each animal was softly put on a platform of elevated plus maze which is described later, toward one of the open arms. Thereafter, behavior of the animal was shot using a video camera (CCD-DC430, SONY) set up the elevated plus maze, and the images were analyzed by a video image behavior analyzing device (Etho Vision, manufactured by Noldus). Additionally, the images from the video camera were recorded and handled as reference data. In this connection, when the animal fell, it was regarded as staying on the open arm, and the animal was quickly returned to the place or the open arm where it was present just before the falling. The evaluation was carried out on the respective items shown by A to H (A: frequency of approach to the open arm, B: frequency of approach to the closed arm, C: frequency of approach to the platform, D: stayed time (second) on the open arm, E: stayed time (second) on the closed arm, F: stayed time (second) on the platform, G: defecation frequency on the open arm, platform and closed arm, and H: urination frequency on the open arm, platform and closed arm), by measuring A to F using the video image behavior analyzing device, and by measuring G and H after completion of the measurement. […]

The test system of experiment [2] is olfactory bulbectomized rats. In words: Influence on hyperemotional score in olfactory bulbectomized rats (Test Example 4-2). It counts as in vivo, rat. The conditions noted are these: oral once a day for 7 days; present tense. The text has this:
Wistar male rats are used in the test. By fixing the head of each rat under pentobarbital sodium anesthesia to a brain stereotaxic apparatus, the head skin is incised and then holes are opened at right and left olfactory bulb regions using a dental drill to suck and remove the right and left olfactory bulbs using an aspirator. The head skin is stitched thereafter. In this connection, the suction and removal of olfactory bulbs are not carried out in the sham-operation group, and the head skin is stitched after opening holes at right and left olfactory bulb regions. The rats after extraction of the olfactory bulbs are put into a series of five stainless steel cages, each of which is partitioned into two parts with an acrylic board for individual rearing space, and individually reared for 2 weeks under a dark condition, and then subjected to the following tests of <4-2> and <4-3>.
The vehicle and test drug are orally administered once a day repeatedly for 7 days. The evaluation is carried out under a quiet environment, before the grouping and on the 1st and 7th days after administration of the test drug. The degree of irritability is scored in accordance with the evaluation criteria shown below, before the grouping and before the administration of 7 days test drug administration, and after 1 hour of the administration of test drug administration of 1 day and 7 days. […]

[3] abbreviates: dose 3 mg/kg once a day for 8 days.
[4] abbreviates: dose 10 mg/kg once a day for 8 days.

Regarding `CCCCCC[C@@H](CCC)C(=O)O` [(2R)-2-propyloctanoic acid], the “Time (seconds) stayed on closed arm (mean ± S. E.)” value in experiment [1] (setting [3]) worked out at 188.7 ± 19.7 s; in experiment [1] (setting [4]), 209.4 ± 24.1 s. Further, the “Time (seconds) stayed on open arm (mean ± S. E.)” value in experiment [1] (setting [3]) came out at 73.7 ± 17.5 s; in experiment [1] (setting [4]), 57.7 ± 22.1 s. Further, the “Anxiolytic behavior versus vehicle control group” value in experiment [1] (olfactory bulbectomized rats, elevated plus maze, result in words) was “inhibited the anxiolytic behavior”. The “Development of hyperemotionality versus vehicle group” value in experiment [2] is “inhibits development of hyperemotionality”.
